Measurements published in patent EP4417607A1, “HETEROCYCLIC COMPOUND AS SOS1 INHIBITOR AND USES THEREOF” (Nanjing Zaiming Pharmaceutical Co., Ltd., priority 2021, dated 2023).

tested on: p-ERK pathway in H358 cells; assay: p-ERK pathway inhibition in H358 cells (Advanced phospho-ERK (Thr202/Tyr204) cellular kit, HTRF); assay type: cell-based; conditions: Homo sapiens, NCI-H358, 1 h compound incubation
Method: The effect of the compounds of the present invention on H358 cell p-ERK pathway was assessed by Advanced phospho-ERK (Thr202/Tyr204) cellular kit method.
The experimental procedures were summarized as follows: H358 cells (ATCC, CRL-5807) were cultured in RPMI1640 (ThermoFisher, A1049101) complete medium containing 10% FBS (Gibco, 10100147) and 100 U/mL penicillin-streptomycin mixed solution (Gibco, 15140163). When the coverage of the cells in the culture vessel reached 80-90%, the cells were pipetted and seeded in a 96-well plate (Corning, 3599) at 50000 cells/well (90 µL RPMI1640 complete medium), and the plate was left to stand for 5 min, cultured in an incubator at 37 °C with 5% CO2 for 6 h, replaced with a serum-free RPMI1640, and starved overnight.
After incubation overnight, 10 µL of a diluted test compound was added to each well using a multi-channel pipette, and the 96-well plate was cultured in an incubator at 37 °C with 5% CO2 for 1 h. The supernatant was poured. The cells were washed once with PBS. 50 µL of a lysis buffer (Advanced phospho-ERK (Thr202/Tyr204) cellular kit, 64AERPEH) was added to each well. The plate was shaken at room temperature at 450 rpm for 1 h. After the cells were completely lysed, 16 µL of the supernatant was added to a 384-well plate (PE, 6007299), mixed energy donor Eu and energy acceptor D2 (D2/Eu = 1:1) were added, and the plate was incubated at room temperature for 4 h. HTRF on the microplate reader was selected for plate reading, Ratio = Signal 665 nm/Signal 620 nm × 10^4. In this experiment, the cell-free group (replaced with 1640 medium) was used as the 100% inhibition group, and the compound-free group in which the cell was added was used as the 0% inhibition group.
The inhibition percentage of H358 cell p-ERK pathway by the compounds of the present invention could be calculated by the following formula: [formula]
IC50 values of the compounds were calculated from 8 concentration points using XLfit (ID Business Solutions Ltd., UK) software by the following formula: Y = Bottom + (Top−Bottom)/(1+10^(∧)((logIC50−X)×slopefactor)) [formula]
Y is the inhibition percentage, X is the logarithmic value of the concentration of the test compound, Bottom is the minimum inhibition percentage, Top is the maximum inhibition percentage, and slope factor is the slope coefficient of the curve. The default fitted curve was used to fit the slope of the S-shaped curve to determine the IC50 value. Table 2. Results of p-ERK inhibition test by the compounds of the present invention

SMILES | IC50
Cc1nc(N[C@H](C)c2cccc(S(F)(F)(F)(F)F)c2)c2cn(N3CCOCC3)c(=O)cc2n1 [Example 18, (R)-2-methyl-6-morpholine-4-((1-(3-(pentafluoro-λ^6-sulfanyl)phenyl)ethyl)amino) pyrido[4,3-d]pyrimidine-7(6H)-one] | 79.8 nM
Cc1nc(N[C@H](C)c2cccc(C#N)c2C)c2cn(N3CCOCC3)c(=O)c(-c3ccnc(N4CCOCC4)c3)c2n1 [Example 163] | 43.9 nM
Cc1nc(N[C@H](C)c2cccc(C(F)F)c2F)c2cn(C3(CF)CC3)c(=O)c(-c3c(C)noc3C)c2n1 [Example 123, (R)-4-((1-(3-(difluoromethyl)-2-fluorophenyl)ethyl)amino)-8-(3,5-dimethylisoxazol-4-yl)-6-(1-(fluoromethyl)cyclopropyl)-2-methylpyrido[4,3-d]pyrimidine-7(6H)-one] | 111 nM
Cc1nc(N[C@H](C)c2cccc(C(F)F)c2F)c2cn(C3(CF)CC3)c(=O)c(N3CCC(F)(F)CC3)c2n1 [Example 169] | 121 nM
Cc1nc(N[C@H](C)c2cccc(C(F)F)c2F)c2cn(C3(CF)CC3)c(=O)c(Nc3cnn(C)c3)c2n1 [Example 93, (R)-4-((1-(3-(difluoromethyl)-2-fluorophenyl)ethyl)amino)-6-(1-(fluoromethyl)cyclopropyl)-2-methyl-8-((1-methyl-1H-pyrazol-4-yl)amino)pyrido[4,3-d]pyrimidine-7(6H)-one] | 90.3 nM
COc1c(=O)n(C2(CF)CCN(C(C)=O)C2)cc2c(N[C@H](C)c3cccc(C(F)F)c3F)nc(C)nc12 (stereo partly drawn) [Example 8, 6-(1-acetyl-3-(fluoromethyl)pyrrolidin-3-yl)-4-(((R)-1-(3-(difluoromethyl)-2-fluorophenyl)ethyl)amino)-8-methoxy-2-methylpyrido[4,3-d]pyrimidine-7(6H)-one] | 92.9 nM
Cc1nc(N[C@H](C)c2cccc(C#N)c2C)c2cn(N3CCOCC3)c(=O)c(N3CCN4C(=O)OC[C@H]4C3)c2n1 [Example 99, 2-methyl-3-((R)-1-((2-methyl-6-morpholine-7-oxo-8-((R)-3-oxotetrahydro-3H-oxazolo[3,4-a]pyrazin-7(1H)-yl)-6,7-dihydropyrido[4,3-d]pyrimidin-4-yl)amino)ethyl)benzonitrile] | 112 nM

Now from value to compound:

IC50 | SMILES
48.4 nM | Cc1nc(N[C@H](C)c2cccc(C(F)F)c2F)c2cn(C3(CF)CC3)c(=O)c(N3Cc4cn(C5CC5)nc4C3)c2n1 [Example 106]
49.1 nM | Cc1nc(N[C@H](C)c2cccc(C(F)F)c2F)c2cn(C3(CF)CC3)c(=O)c(N3CCN(CC#N)CC3)c2n1 [Example 134, (R)-2-(4-(4-((1-(3-(difluoromethyl)-2-fluorophenyl)ethyl)amino)-6-(1-(fluoromethyl)cyclopropyl)-2-methyl-7-oxo-6,7-dihydropyrido[4,3-d]pyrimidin-8-yl)piperazin-1-yl)acetonitrile]
77.2 nM | CNc1c(=O)n(C2(CF)CC2)cc2c(N[C@H](C)c3cccc(C(F)F)c3F)nc(C)nc12 [Example 77]
167 nM | Cc1nc(N[C@H](C)c2cccc(C(F)F)c2F)c2cn(C3(CF)CC3)c(=O)c(N3CCOCC3=O)c2n1 [Example 172, (R)-4-(4-((1-(3-(difluoromethyl)-2-fluorophenyl)ethyl)amino)-6-(1-(fluoromethyl)cyclopropyl)-2-methyl-7-oxo-6,7-dihydropyrido[4,3-d]pyrimidin-8-yl)morpholine-3-one]
171 nM | Cc1nc(N[C@H](C)c2cccc(C(F)F)c2F)c2cn(C3(CF)CC3)c(=O)c(N3CC(C)(C#N)C3)c2n1 [Example 75, (R)-1-(4-((1-(3-(difluoromethyl)-2-fluorophenyl)ethyl)amino)-6-(1-(fluoromethyl)cyclopropyl)-2-methyl-7-oxo-6,7-dihydropyrido[4,3-d]pyrimidin-8-yl)-3-methylazetidine-3-carbonitrile]
